Measured values: the Deep4Chem optical property database
Several values for one entry are separate records, joined by “and”; a condition that tells them apart may be missing. Equal values may be shown once. Values belong to the compound of their own block, whether it stands above or below them.

Assay: solvent given as SMILES

SMILES: Cc1ccc(/C=C/c2nc(-c3cccc([N+](=O)[O-])c3)[nH]c2/C=C/c2ccc(C)cc2)cc1
absorption maximum (in ClCCl): 370 nm

SMILES: O=c1oc2ccc(Br)cc2cc1-c1cc2cc(Br)ccc2o1
absorption maximum (in CC#N): 370 nm
absorption maximum (in CCOC(C)=O): 371 nm
absorption maximum (in CS(C)=O): 374 nm
absorption maximum (in Cc1ccccc1): 377 nm
absorption maximum (in O): 331 nm

SMILES: O=S1(=O)C2=C(c3ccc(-c4ccc(N(c5ccccc5)c5ccccc5)cc4)cc31)C1(C3=C(c4ccccc41)S(=O)(=O)c1cc(-c4ccc(N(c5ccccc5)c5ccccc5)cc4)ccc13)c1ccccc12
absorption maximum (in C1CCOC1): 431 nm
absorption maximum (in CC#N): 430 nm
absorption maximum (in CCCCCC): 424 nm
absorption maximum (in Cc1ccccc1): 438 nm
absorption maximum (in ClCCl): 438 nm

SMILES: Cc1ccc(-c2cc(-c3ccccc3)c(C#N)c(=S)[nH]2)cc1
absorption maximum (in C1CCCCC1): 488 nm
absorption maximum (in C1COCCO1): 442 nm
absorption maximum (in CC#N): 430 nm
absorption maximum (in CCOCC): 440 nm
absorption maximum (in CN(C)C=O): 438 nm
absorption maximum (in ClC(Cl)(Cl)Cl): 446 nm

SMILES: COc1ccc(-c2oc3cccc4c5c(-c6ccc(OC)cc6)/c(=N/S(=O)(=O)C(F)(F)F)oc6cccc(c2c34)c65)cc1
absorption maximum (in ClC(Cl)Cl): 480 nm

SMILES: CCCCC1(c2ccccc2)Nc2ccccc2N=C1c1ccccc1 (configuration not stated)
absorption maximum (in ClC(Cl)Cl): 386 nm

SMILES: COc1cc2c(c(OC)c1OC)c1ccc3cccc4c5cccc6oc(=O)c2c(c65)c1c34
absorption maximum (in C1CCOC1): 417 nm

SMILES: CN(C)c1ccc2[c](c1)[Ge]([CH3])([CH3])[C]1=CC(=[N+](C)C)C=CC1=C2
absorption maximum (in O): 621 nm

SMILES: O=C(c1ccc2c3c(sc2c1)-c1ccccc1P3(=O)c1ccccc1)c1c(F)c(F)c(F)c(F)c1F (configuration not stated)
absorption maximum (in ClCCl): 368 nm and 381 nm

SMILES: CCC1=C(C)c2cc3ccccc3c(=O)n2C1=O
absorption maximum (in CC#N): 369 nm
absorption maximum (in CCCCCC): 366 nm
absorption maximum (in CO): 370 nm
absorption maximum (in CS(C)=O): 373 nm
absorption maximum (in ClC(Cl)Cl): 371 nm

SMILES: [O-][n+]1c(/C=C/c2ccc3ccccc3c2)nc(N2CCOCC2)c2c1CCCC2
absorption maximum (in ClCCl): 400 nm

SMILES: COc1ccc(C2=C(c3ccc(OC)cc3)C(C)(C)c3cc(-c4ccccc4)ccc32)cc1
absorption maximum (in C1CCCCC1): 305 nm

SMILES: CON(C)C(=O)c1ccc(/C=C/c2ccc(/C=C/c3ccc(C(=O)N(C)OC)cc3)cc2)cc1
absorption maximum (in c1ccccc1): 368 nm

SMILES: CCOC(=O)c1ccc(C2CC(c3cccc4ccccc34)=NN2c2ccc(F)cc2)cc1 (configuration not stated)
absorption maximum (in ClCCl): 375 nm

SMILES: N#Cc1c(-n2c3ccc(Br)cc3c3cc(Br)ccc32)c(-n2c3ccc(Br)cc3c3cc(Br)ccc32)c(C#N)c(-n2c3ccc(Br)cc3c3cc(Br)ccc32)c1-n1c2ccc(Br)cc2c2cc(Br)ccc21
absorption maximum (in Cc1ccccc1): 339 nm

SMILES: Cc1ccc(C(=O)/N=c2\oc3cccc4c5c(-c6ccccc6)oc6cccc(c(c2-c2ccccc2)c34)c65)cc1
absorption maximum (in ClC(Cl)Cl): 385 nm

SMILES: O=C1C=C(Nc2ccc(F)cc2)C(=O)c2ccccc21
absorption maximum (in CCCCCC): 445 nm
absorption maximum (in CO): 461 nm

SMILES: Cc1ccc(-c2ccc(C(=O)NC(C)(C)C)c3c2ccc2c4ccccc4c4ccccc4c23)cc1
absorption maximum (in ClCCl): 341 nm

SMILES: N#Cc1nn(-c2cc(F)cc(F)c2)nc1N1CCCC1
absorption maximum (in CC#N): 350 nm

SMILES: c1ccc(-n2cccc2)cc1
absorption maximum (in CC#N): 252 nm
absorption maximum (in CCCCCC): 254 nm

SMILES: COc1ccc(-c2csc(/C(C#N)=C/c3ccc(C#N)cc3)n2)cc1
absorption maximum (in CC#N): 389 nm
absorption maximum (in CCO): 395 nm
absorption maximum (in CN(C)C=O): 395 nm
absorption maximum (in Cc1ccccc1): 400 nm
absorption maximum (in ClCCl): 396 nm

SMILES: Cc1ccc2cc3cc(C)ncc3cc2c1
absorption maximum (in CCO): 383.73 nm

SMILES: CCCCCCCCCCCCSc1cc2c3c(ccc4c5c(SCCCCCCCCCCCC)cc6c7c(ccc(c1c34)c75)C(=O)N(C1CCCCC1)C6=O)C(=O)N(C1CCCCC1)C2=O
absorption maximum (in ClC(Cl)Cl): 574 nm

SMILES: COc1ccc2c3ccc(OC)cc3n(-c3ccc(-c4nnc(-c5c(C)cc(C)cc5C)o4)cc3C)c2c1
absorption maximum (in Cc1ccccc1): 319 nm

SMILES: Cc1ccccc1/C(C#N)=C/c1ccc(N(C)C)cc1
absorption maximum (in C1CCOC1): 376 nm
absorption maximum (in C1COCCO1): 376 nm
absorption maximum (in CC#N): 377 nm
absorption maximum (in CCCCCC): 364 nm
absorption maximum (in CCCCCCC): 376 nm
absorption maximum (in CCCCCO): 376 nm
absorption maximum (in CCCCO): 376 nm
absorption maximum (in CCCO): 374 nm
absorption maximum (in CCO): 376 nm
absorption maximum (in CCOC(C)=O): 373 nm
absorption maximum (in CN(C)C=O): 382 nm
absorption maximum (in CO): 374 nm
absorption maximum (in CS(C)=O): 385 nm
absorption maximum (in Cc1ccccc1): 366 nm
absorption maximum (in ClC(Cl)Cl): 378 nm

SMILES: CC1(C)c2cc(C#N)ccc2-c2ccc(N3c4ccccc4Oc4ccccc43)cc21
absorption maximum (in C1CCCCC1): 395 nm
absorption maximum (in C1CCOC1): 380 nm
absorption maximum (in CC#N): 375 nm
absorption maximum (in Cc1ccccc1): 390 nm
absorption maximum (in ClC(Cl)Cl): 389 nm

SMILES: Cc1cc(C)c(B(c2ccc(C#Cc3cc4ccc5cc(C#Cc6ccc(B(c7c(C)cc(C)cc7C)c7c(C)cc(C)cc7C)cc6)cc6ccc(c3)c4c56)cc2)c2c(C)cc(C)cc2C)c(C)c1
absorption maximum (in Cc1ccccc1): 414 nm

SMILES: CC(C)(C)c1ccc2oc(-c3ccc(-c4nc5cc(C(C)(C)C)ccc5o4)s3)nc2c1
absorption maximum (in C1CCCCC1): 372 nm
absorption maximum (in C1CCOC1): 374 nm
absorption maximum (in CC1CCCCC1): 373 nm
absorption maximum (in CC#N): 371 nm
absorption maximum (in CCCCO): 375 nm
absorption maximum (in CCO): 373 nm
absorption maximum (in CN(C)C=O): 374 nm
absorption maximum (in Cc1ccccc1): 376 nm
absorption maximum (in Clc1ccccc1Cl): 379 nm
absorption maximum (in c1ccccc1): 377 nm

SMILES: CC(C)(C)c1ccc2c(c1)[nH]c1c3[nH]c4cc(C(C)(C)C)ccc4c3c3nsnc3c21
absorption maximum (in CN(C)C=O): 412 nm
absorption maximum (in Cc1ccccc1): 406 nm
absorption maximum (in ClCCl): 411 nm

SMILES: C1=Cc2ccccc2C(=Cc2ccc(C=C3c4ccccc4-c4ccccc43)cc2)c2ccccc21
absorption maximum (in C1CCOC1): 360 nm

SMILES: Cc1ccc(C)n1-c1ccccc1
absorption maximum (in CC#N): 234 nm
absorption maximum (in CCCCCC): 240 nm

SMILES: CCCCCCOc1ccc(/C=C/c2ccc(N(c3ccc(/C=C/c4ccc(OCCCCCC)cc4)cc3)c3ccc(-c4nc5ccccc5nc4-c4ccc(N(c5ccc(/C=C/c6ccc(OCCCCCC)cc6)cc5)c5ccc(/C=C/c6ccc(OCCCCCC)cc6)cc5)cc4)cc3)cc2)cc1
absorption maximum (in C1CCOC1): 378 nm
absorption maximum (in Cc1ccccc1): 374 nm

SMILES: F[B-]1(F)Oc2ccccc2-c2cc(-n3c4ccccc4c4ccccc43)cc[n+]21
absorption maximum (in Cc1ccccc1): 366 nm

SMILES: c1ccc(N(c2ccccc2)c2ccc(-c3ccc4c(c3)C3(c5cc(-c6ccc(N(c7ccccc7)c7ccccc7)cc6)ccc5O4)c4ccccc4-c4ccccc43)cc2)cc1
absorption maximum (in ClCCl): 345 nm

SMILES: CCN(CC)c1ccc2cc(/C=C/C(=C(C#N)C#N)c3ccc(N(c4ccccc4)c4ccccc4)cc3)c(=O)oc2c1
absorption maximum (in CC(C)=O): 516 nm
absorption maximum (in CCOC(C)=O): 507 nm
absorption maximum (in CN(C)C=O): 528 nm
absorption maximum (in CS(C)=O): 536 nm
absorption maximum (in Cc1ccccc1): 493 nm
absorption maximum (in ClCCl): 518 nm

SMILES: c1ccc(N(c2ccccc2)c2ccc(-c3cncs3)cc2)cc1
absorption maximum (in CO): 346 nm

SMILES: CCCCc1ccc2ccc3c(CCCC)ccc4ccc1c2c43
absorption maximum (in CCCCCC): 344 nm
absorption maximum (in CO): 344 nm
absorption maximum (in ClCCl): 347 nm

SMILES: C=Cc1cccc(OC)c1
absorption maximum (in C1CCCCC1): 295 nm

SMILES: Cc1cc(C)c(C2=[N+]3C(=Cc4c(C)cc(C)n4[B-]3(F)F)c3ccccc32)[nH]1
absorption maximum (in C1CCOC1): 609 nm
absorption maximum (in CC#N): 601 nm
absorption maximum (in CCCCCC): 610 nm
absorption maximum (in CO): 603 nm
absorption maximum (in Cc1ccccc1): 616 nm
absorption maximum (in ClCCl): 609 nm

SMILES: CC(C)=C(C)C
absorption maximum (in CCCCCCC): 196 nm

Other lines, results leading:

absorption maximum (in ClCCl): 405 nm
SMILES: CCN(CC)c1ccc2c(c1)oc(=O)c1cnc3c(cnn3-c3ccccc3)c12

absorption maximum (in ClCCl): 430 nm
SMILES: CN(C)c1ccc(N2c3sc4ccccc4c3Sc3c2sc2ccccc32)cc1

absorption maximum (in C1CCOC1): 372 nm
SMILES: COC(=O)c1ccc(/C=C/C(F)(F)F)c(N)c1

absorption maximum (in C1CCOC1): 339.52 nm
SMILES: COC(=O)C1(C(=O)OC)Cc2c(C#Cc3ccccc3)c(-c3ccccc3)c3c(-c4ccccc4)c(-c4ccccc4)c(-c4ccccc4)c(-c4ccccc4)c3c2C1

absorption maximum (in ClC(Cl)Cl): 430 nm
SMILES: c1ccc(-c2nc(-c3ccc(N4CCCC4)cc3)cc(-c3ccc4ccccc4c3)n2)cc1

absorption maximum (in ClC(Cl)Cl): 700 nm
SMILES: CC1=CC(/C=C/c2ccc(N(C)C)cc2)=[N+]2C1=C(c1ccccc1)c1c(C)cc(/C=C/c3ccc(N(C)C)cc3)n1[B-]2(F)F

absorption maximum (in ClC(Cl)Cl): 608 nm
SMILES: CN1C(=CC2=C([O-])C(=Cc3oc4ccccc4[n+]3C)C2=O)C(C)(C)c2ccccc21

absorption maximum (in C1COCCO1): 448 nm
SMILES: CN(C)c1ccc(/C=C/c2ccc([N+](=O)[O-])c(O)c2)cc1

absorption maximum (in C1CCCCC1): 431 nm
absorption maximum (in C1CCOC1): 435 nm
absorption maximum (in CC#N): 434 nm
SMILES: COc1ccc2nc3c(nc2c1)c(-c1ccccc1)nn3C

absorption maximum (in ClCCl): 457 nm
SMILES: Cc1cc(C)c(B2c3cc(C)ccc3N3c4ccc(C)cc4B(c4c(C)cc(C)cc4C)c4cc(C)cc2c43)c(C)c1

absorption maximum (in c1cc(-c2cccc(-n3c4ccccc4c4ccccc43)c2)cc(-n2c3ccccc3c3ccccc32)c1): 405.11 nm
SMILES: c1ccc(-c2nc(-c3ccccc3)nc(-c3ccc(-c4ccc5c(c4)C4(c6ccccc6-c6ccccc64)c4cc(-c6ccc(-c7nc(-c8ccccc8)nc(-c8ccccc8)n7)cc6)ccc4N5c4ccccc4)cc3)n2)cc1

absorption maximum (in C1CCCCC1): 314 nm
SMILES: CCCC1(CCC)c2ccccc2-c2ccc(-c3ccc(C(C)(C)C)cc3)cc21

absorption maximum (in C1CCCCC1): 388 nm
absorption maximum (in CC#N): 392 nm
SMILES: CC(C)c1ccc(/C=C/c2nc3ccc(N(C)C)cc3s2)cc1

absorption maximum (in ClCCl): 407 nm
SMILES: Fc1ccc(C#Cc2nc(C#Cc3ccc(F)cc3)c(C#Cc3ccc(F)cc3)c(C#Cc3ccc(F)cc3)c2C#Cc2ccc(F)cc2)cc1

absorption maximum (in ClCCl): 307.5 nm
SMILES: CCCCCCCCCCn1c(-c2cc(-c3nc4ccc(C)cc4n3CCCCCCCCCC)cc(-c3nc4ccc(C)cc4n3CCCCCCCCCC)c2)nc2ccc(C)cc21

absorption maximum (in ClCCl): 404 nm
SMILES: N#CC(C#N)=Cc1ccc2c(c1)c1ccccc1n2-c1cccc2ccccc12

absorption maximum (in ClC(Cl)Cl): 410 nm
SMILES: COc1ccc(-c2oc3cccc4c5c(-c6ccc(OC)c(OC)c6)c(=N)oc6cccc(c2c34)c65)cc1OC

absorption maximum (in C1CCOC1): 400 nm
SMILES: C(=C\c1c2ccccc2cc2ccccc12)/c1c2ccccc2cc2ccccc12
